Source: paper PMC6627850, “Identification of Plasmodium falciparum Mitochondrial Malate: Quinone Oxidoreductase Inhibitors from the Pathogen Box” (Genes, 2019)
Values joined by “and” are separate entries in the source; they are usually repeats but may differ in a detail not shown here. Equal entries are not always repeated. Where two headings read alike, the source gives them in different places.

Columns and labels:
[1] = target: recombinant PfMQO (Plasmodium falciparum, UniProt C6KT09); assay: biochemical; settings: for inhibition at 10 µM: read-out: Inhibition (%) against recombinant PfMQO; for IC50: serial dilution 10 to 0.0003 μM, quadruplicate, ± standard deviation
recombinant PfMQO, sequence (C6KT09 entry or part of it): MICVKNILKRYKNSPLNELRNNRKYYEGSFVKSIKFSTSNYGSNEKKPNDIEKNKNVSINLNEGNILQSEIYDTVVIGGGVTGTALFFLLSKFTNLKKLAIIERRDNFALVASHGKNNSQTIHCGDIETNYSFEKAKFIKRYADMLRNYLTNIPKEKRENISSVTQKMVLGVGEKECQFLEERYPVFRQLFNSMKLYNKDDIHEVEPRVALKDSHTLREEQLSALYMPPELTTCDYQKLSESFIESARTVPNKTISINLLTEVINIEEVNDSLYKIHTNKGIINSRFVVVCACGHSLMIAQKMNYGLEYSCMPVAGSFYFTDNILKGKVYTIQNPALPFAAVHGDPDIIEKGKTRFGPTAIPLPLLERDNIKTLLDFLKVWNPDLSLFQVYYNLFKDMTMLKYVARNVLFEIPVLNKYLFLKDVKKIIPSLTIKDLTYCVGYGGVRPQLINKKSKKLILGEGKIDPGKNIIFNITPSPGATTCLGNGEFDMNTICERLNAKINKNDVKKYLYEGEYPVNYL

[2] = system: P. falciparum 3D7 strain; assay: Plasmodium falciparum growth inhibition assay (diaphorase-coupled LDH assay, 72 hours); type: cell-based; settings: for Growth inhibition of parasite cells (result in words): P. falciparum 3D7, LDH assay; for IC50: Plasmodium falciparum, read-out: IC50 growth of P. falciparum 3D7 strain in culture (ABS)
Description: Human RBCs were received from Japanese Red Cross Society. The experiments were performed under the guidelines of the ethical committee in The University of Tokyo (permission no. 10050) and Nagasaki University (permission no. 19). Parasite culture was synchronized with 5% (w/v) D-sorbitol as previously described. Ring stage parasites (100 μL/well) were placed in a 96-well plate at 0.3% parasitemia. […] As a control, wells containing culture medium and RBCs alone were prepared. […] The absorbance of each well was measured at 655 nm using SpectraMax Paradigm® Multi-Mode microplate reader (Molecular Devices, San Jose, CA, USA).

[3] = system: HepG2; design: method as in earlier work; settings: ref https://www.mmv.org/mmv-open/pathogen-box/about-pathogen-box#composition; cited from earlier work
[4] = system: ABS parasites; design: method as in PMID 28674055; settings: read-out: IC50 against the ABS parasites, previous study; cited from earlier work
[5] = system: stage IV gametocyte cells; design: method as in PMID 28674055; settings: cited from earlier work
[6] = system: Candida albicans; settings: recently reported; cited from earlier work
[7] = system: Cryptococcus neoformans; settings: recently reported; cited from earlier work
[8] = read-out: IC50 against recombinant PfMQO
[9] = 10 μM compound, average of 4 independent experiments
[10] = 3D7, LDH assay, 72 hours incubation, average of three independent experiments ± SD

Row | SMILES | inhibition at 10 µM [1] | IC50 [1, 8] | Growth inhibition of parasite cells (result in words) [2] | inhibition at 10 µM [1, 9] | IC50 [2, 10] | further results
1 | Cc1cc(C)cc(COc2ccc3c(C)c(CCC(=O)O)c(=O)oc3c2C)c1 [MMV676476] | 63.2% | < 5 µM and 3.57 µM | failed to inhibit the growth | – | – | –
2 | O=C(Nc1nnc(S)s1)c1cc(Br)ccc1Cl [MMV676492] | – | < 5 µM and 0.343 µM | failed to inhibit the growth | 98.5% | – | –
3 | O=C(NCCc1c[nH]c2ccccc12)c1cc2ccccc2oc1=O [MMV676539] | 65.6% | < 5 µM and 4.06 µM | failed to inhibit the growth | – | – | –
4 | N=C(N)Nc1ccc(-c2ccc(-c3ccc(NC(=N)N)cc3Cl)o2)c(Cl)c1 [MMV688179] | – | < 5 µM and 3.96 µM | – | 76% | 0.46 µM | HepG2 cytotoxicity CC20 [3]: 6.8 µM; IC50 [4]: 0.59 µM; Activity against the stage IV gametocyte cells [5]: active
5 | N=C(N)Nc1ccc(-c2ccc(-c3ccc(NC(=N)N)c(Cl)c3)o2)cc1Cl [MMV688271] | – | < 5 µM and 1.15 µM | – | 80.5% | 1.03 µM | HepG2 cytotoxicity CC20 [3]: 13.5 µM; Antifungal effect against Candida albicans [6]: antifungal effect; IC50 [4]: 1.21 µM; Antifungal effect against Cryptococcus neoformans [7]: antifungal effect
6 | COc1ccc(C2=NN(C3CCCCCC3)C(=O)C3CC=CCC23)cc1OCCCCOc1ccc(-c2nn[nH]n2)cc1 (stereo not drawn) [MMV690027] | 98.2% | – | – | – | – | IC50 ([2]; 3D7, 72 h): 16.2 µM
7 | COc1ccc(C2=NN(C3CCCCCC3)C(=O)C2(C)C)cc1OCCCCOc1ccc(-c2nnn[nH]2)cc1 [MMV690028] | 86.7% | – | – | – | 6.05 µM | IC50 ([1]; IC50 against recombinant PfMQO): < 5 µM and 1.1 µM
